AC50 data for nine compounds are collected here from ChEMBL document CHEMBL5291721, “A preclinical secondary pharmacology resource illuminates target-adverse drug reaction associations of marketed drugs” (Nat Commun, 2023).

Among the targets are Adenosine receptor A2a (Homo sapiens, UniProt P29274); Vasopressin V1a receptor (Homo sapiens, UniProt P37288); Vasopressin V2 receptor (Homo sapiens, UniProt P30518); Histamine H1 receptor (Homo sapiens, UniProt P35367); Histamine H3 receptor (Homo sapiens, UniProt Q9Y5N1).
The target of the next test is T1, Adenosine receptor A1 (Homo sapiens, UniProt P30542).
T1 sequence (P30542 whole entry): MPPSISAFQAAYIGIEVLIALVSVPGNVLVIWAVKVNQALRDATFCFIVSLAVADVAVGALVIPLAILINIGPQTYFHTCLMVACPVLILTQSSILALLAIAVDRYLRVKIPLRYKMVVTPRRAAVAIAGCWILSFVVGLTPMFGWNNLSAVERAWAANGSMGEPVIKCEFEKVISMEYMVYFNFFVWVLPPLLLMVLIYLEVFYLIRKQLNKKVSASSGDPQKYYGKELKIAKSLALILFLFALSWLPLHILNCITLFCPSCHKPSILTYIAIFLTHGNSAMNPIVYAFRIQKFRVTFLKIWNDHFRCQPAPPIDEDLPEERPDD

For test [1], the target named is T2, Alpha-2A adrenergic receptor (Homo sapiens, UniProt P08913).
T2 sequence (P08913 whole entry): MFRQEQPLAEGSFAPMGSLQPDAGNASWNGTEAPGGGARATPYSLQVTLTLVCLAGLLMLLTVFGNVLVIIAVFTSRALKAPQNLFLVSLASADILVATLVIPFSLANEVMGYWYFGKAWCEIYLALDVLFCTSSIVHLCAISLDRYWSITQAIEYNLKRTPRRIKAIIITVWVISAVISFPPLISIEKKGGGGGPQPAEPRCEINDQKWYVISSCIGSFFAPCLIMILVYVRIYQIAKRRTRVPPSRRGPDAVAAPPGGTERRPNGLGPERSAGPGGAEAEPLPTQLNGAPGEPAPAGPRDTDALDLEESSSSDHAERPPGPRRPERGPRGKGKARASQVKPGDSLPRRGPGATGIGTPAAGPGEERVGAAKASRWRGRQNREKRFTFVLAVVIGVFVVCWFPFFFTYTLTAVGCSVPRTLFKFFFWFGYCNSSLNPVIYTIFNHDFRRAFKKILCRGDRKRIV
Format: functional, cell-based.

In test [2] the target is T3, Alpha-2C adrenergic receptor (Homo sapiens, UniProt P18825).
T3 sequence (P18825 whole entry): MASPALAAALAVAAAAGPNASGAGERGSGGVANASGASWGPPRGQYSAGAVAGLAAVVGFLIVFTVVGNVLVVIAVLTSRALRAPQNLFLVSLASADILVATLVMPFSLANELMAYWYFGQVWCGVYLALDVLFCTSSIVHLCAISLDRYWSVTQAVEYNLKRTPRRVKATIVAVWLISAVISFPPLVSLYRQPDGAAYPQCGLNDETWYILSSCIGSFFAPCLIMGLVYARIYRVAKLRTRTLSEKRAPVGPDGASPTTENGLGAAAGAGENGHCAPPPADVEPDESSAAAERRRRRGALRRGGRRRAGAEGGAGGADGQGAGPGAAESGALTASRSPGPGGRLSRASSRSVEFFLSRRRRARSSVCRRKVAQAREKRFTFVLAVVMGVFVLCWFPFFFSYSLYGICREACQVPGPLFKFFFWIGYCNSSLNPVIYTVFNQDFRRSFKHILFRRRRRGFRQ
It counts as functional.

The next test has as its target T4, B2 bradykinin receptor (Homo sapiens, UniProt P30411).
T4 sequence (P30411 whole entry): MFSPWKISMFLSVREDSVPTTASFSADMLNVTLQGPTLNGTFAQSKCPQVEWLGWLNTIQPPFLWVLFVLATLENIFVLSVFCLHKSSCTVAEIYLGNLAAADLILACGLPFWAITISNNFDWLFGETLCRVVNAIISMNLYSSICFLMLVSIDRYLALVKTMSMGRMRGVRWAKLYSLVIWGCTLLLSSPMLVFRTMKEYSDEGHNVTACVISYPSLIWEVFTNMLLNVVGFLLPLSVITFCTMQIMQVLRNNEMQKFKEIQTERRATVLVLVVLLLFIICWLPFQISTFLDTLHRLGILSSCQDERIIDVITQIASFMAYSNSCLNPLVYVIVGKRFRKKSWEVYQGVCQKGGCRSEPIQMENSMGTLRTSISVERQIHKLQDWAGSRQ

Test [3] deals with Muscarinic acetylcholine receptor M3 (Homo sapiens, UniProt P20309).
The target of a further test is Cannabinoid receptor 1 (Homo sapiens, UniProt P21554). It counts as functional, cell-based.
Test [4] concerns the target Gamma-aminobutyric acid receptor subunit alpha-1 (Rattus norvegicus, UniProt P62813). Format: functional.
The target of test [5] is Growth hormone secretagogue receptor type 1 (Homo sapiens, UniProt Q92847).
The target in test [6] is T5, 5-hydroxytryptamine receptor 2B (Homo sapiens, UniProt P41595). Format: functional, cell-based.
The target of test [7] is T5, 5-hydroxytryptamine receptor 2B. Format: functional, cell-based. This is another data set of the same source.
For test [8], the target named is Kappa-type opioid receptor (Homo sapiens, UniProt P41145).
The target of another test is Mu-type opioid receptor (Homo sapiens, UniProt P35372). In words: biochemical. It counts as functional.
Test [9] deals with Sodium-dependent noradrenaline transporter (Homo sapiens, UniProt P23975).

SMILES strings stand for the structures. A value given as a limit tells only on which side of the number the result lay.
Also: assay procedure not described here.

Sequence of Sodium-dependent noradrenaline transporter (P23975 whole entry): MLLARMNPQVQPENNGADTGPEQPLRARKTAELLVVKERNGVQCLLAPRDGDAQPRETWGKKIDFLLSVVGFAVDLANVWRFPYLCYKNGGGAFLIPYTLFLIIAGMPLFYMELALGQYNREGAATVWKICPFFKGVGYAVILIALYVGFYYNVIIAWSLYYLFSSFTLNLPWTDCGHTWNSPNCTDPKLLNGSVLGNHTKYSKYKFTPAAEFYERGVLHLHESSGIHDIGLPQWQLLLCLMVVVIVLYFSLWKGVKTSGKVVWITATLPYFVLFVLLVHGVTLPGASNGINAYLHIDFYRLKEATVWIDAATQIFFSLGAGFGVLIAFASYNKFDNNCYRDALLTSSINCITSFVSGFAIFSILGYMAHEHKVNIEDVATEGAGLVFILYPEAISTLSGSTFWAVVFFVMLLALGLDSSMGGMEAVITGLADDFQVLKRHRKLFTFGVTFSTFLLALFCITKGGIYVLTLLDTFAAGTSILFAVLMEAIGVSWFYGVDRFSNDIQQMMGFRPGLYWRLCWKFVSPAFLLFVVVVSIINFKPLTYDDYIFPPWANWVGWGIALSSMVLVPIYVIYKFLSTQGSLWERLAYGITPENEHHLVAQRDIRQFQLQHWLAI
Sequence of Muscarinic acetylcholine receptor M3 (P20309 whole entry): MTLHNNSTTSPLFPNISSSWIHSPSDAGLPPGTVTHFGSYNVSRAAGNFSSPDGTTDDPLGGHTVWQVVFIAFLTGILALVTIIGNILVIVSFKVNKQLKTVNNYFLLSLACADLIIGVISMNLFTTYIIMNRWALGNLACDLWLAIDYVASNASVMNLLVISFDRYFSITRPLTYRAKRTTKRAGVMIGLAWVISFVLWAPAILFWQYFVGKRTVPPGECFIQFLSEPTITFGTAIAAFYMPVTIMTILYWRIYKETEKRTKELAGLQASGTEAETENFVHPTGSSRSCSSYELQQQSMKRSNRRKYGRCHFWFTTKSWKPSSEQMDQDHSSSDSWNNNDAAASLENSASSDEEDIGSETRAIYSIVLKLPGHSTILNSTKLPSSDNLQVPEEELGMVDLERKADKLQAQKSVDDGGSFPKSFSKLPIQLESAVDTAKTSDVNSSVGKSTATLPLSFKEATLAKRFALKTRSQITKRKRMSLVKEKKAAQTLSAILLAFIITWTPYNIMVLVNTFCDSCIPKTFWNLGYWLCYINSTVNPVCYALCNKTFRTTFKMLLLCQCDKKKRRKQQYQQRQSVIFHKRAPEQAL
Sequence of Cannabinoid receptor 1 (P21554 whole entry): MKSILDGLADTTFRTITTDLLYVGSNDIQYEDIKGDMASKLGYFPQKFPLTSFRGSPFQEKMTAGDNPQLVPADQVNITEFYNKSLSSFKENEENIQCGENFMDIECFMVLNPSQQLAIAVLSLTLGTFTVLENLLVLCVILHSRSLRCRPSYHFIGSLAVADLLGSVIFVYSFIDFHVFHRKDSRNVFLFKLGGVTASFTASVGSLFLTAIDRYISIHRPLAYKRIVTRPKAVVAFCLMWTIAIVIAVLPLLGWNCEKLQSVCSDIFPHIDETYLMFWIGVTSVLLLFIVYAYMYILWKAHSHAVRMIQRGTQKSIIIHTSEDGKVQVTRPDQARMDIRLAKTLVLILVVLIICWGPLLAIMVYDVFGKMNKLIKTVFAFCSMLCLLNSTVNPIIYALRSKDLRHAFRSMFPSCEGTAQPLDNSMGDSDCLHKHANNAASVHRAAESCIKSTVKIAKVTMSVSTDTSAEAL
Sequence of Vasopressin V2 receptor (P30518 whole entry): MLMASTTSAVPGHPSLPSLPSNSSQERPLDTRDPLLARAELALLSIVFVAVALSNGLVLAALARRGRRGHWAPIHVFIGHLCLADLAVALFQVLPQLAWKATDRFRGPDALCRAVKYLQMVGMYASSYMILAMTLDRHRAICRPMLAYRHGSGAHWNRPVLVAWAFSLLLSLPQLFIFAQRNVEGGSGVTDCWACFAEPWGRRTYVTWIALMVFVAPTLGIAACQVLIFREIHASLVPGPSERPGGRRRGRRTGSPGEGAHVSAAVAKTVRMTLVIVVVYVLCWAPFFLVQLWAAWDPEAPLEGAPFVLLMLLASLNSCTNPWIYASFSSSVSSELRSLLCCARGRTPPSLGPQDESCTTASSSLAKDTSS
Sequence of Kappa-type opioid receptor (P41145 whole entry): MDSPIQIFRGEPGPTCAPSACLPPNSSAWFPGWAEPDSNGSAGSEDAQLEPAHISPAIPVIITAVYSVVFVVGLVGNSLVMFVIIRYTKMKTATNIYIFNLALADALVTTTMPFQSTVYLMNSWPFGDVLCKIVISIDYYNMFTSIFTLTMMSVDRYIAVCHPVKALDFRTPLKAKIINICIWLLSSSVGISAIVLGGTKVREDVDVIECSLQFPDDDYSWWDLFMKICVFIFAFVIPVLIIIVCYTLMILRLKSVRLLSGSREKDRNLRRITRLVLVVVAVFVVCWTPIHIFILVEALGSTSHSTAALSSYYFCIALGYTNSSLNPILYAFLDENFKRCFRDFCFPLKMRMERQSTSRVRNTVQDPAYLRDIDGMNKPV
T5 sequence (P41595 whole entry): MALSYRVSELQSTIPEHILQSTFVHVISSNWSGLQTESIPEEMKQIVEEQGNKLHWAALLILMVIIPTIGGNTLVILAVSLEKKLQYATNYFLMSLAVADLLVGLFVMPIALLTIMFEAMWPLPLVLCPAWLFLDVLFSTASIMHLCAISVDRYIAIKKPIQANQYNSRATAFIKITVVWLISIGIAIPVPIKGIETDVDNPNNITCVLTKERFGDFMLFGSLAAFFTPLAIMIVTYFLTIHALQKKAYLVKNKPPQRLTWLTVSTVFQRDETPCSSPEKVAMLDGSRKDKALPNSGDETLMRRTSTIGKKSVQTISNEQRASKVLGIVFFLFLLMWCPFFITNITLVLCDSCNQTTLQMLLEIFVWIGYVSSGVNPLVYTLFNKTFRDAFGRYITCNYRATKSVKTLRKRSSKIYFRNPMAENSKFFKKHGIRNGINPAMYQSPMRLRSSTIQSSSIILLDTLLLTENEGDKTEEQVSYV
Sequence of Mu-type opioid receptor (P35372 whole entry): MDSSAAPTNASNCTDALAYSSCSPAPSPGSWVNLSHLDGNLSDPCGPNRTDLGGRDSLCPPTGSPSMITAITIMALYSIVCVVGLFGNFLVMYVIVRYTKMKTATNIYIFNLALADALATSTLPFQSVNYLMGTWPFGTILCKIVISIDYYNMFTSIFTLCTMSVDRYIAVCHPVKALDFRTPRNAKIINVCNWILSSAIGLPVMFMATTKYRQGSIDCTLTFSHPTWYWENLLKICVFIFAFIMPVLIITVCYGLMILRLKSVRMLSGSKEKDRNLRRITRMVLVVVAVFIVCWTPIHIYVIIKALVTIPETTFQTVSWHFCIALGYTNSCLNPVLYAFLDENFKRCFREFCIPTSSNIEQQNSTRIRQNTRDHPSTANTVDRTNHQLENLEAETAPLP
Sequence of Adenosine receptor A2a (P29274 whole entry): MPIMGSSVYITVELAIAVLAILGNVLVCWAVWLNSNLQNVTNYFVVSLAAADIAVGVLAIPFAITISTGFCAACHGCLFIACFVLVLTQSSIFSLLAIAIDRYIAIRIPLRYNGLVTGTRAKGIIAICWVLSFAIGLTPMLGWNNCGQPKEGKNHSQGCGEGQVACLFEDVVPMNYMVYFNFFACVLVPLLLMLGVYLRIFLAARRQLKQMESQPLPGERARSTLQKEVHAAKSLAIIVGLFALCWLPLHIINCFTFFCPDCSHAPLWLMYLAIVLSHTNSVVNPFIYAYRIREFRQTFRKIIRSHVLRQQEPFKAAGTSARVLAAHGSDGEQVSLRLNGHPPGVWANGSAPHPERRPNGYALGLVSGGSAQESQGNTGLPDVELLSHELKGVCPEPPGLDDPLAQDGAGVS
Sequence of Histamine H1 receptor (P35367 whole entry): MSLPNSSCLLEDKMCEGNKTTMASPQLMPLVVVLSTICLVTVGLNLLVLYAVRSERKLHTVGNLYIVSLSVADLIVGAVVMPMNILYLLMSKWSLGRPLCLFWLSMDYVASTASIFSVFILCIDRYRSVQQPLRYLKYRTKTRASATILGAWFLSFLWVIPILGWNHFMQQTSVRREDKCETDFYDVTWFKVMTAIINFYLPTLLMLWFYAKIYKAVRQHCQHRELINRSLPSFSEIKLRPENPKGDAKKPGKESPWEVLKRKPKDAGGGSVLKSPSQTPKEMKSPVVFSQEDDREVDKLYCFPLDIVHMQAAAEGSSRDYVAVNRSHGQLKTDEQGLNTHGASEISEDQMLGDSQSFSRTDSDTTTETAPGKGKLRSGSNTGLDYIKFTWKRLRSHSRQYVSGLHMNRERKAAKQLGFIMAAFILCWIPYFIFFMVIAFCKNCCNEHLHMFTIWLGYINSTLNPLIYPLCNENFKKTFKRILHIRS
Sequence of Histamine H3 receptor (Q9Y5N1 whole entry): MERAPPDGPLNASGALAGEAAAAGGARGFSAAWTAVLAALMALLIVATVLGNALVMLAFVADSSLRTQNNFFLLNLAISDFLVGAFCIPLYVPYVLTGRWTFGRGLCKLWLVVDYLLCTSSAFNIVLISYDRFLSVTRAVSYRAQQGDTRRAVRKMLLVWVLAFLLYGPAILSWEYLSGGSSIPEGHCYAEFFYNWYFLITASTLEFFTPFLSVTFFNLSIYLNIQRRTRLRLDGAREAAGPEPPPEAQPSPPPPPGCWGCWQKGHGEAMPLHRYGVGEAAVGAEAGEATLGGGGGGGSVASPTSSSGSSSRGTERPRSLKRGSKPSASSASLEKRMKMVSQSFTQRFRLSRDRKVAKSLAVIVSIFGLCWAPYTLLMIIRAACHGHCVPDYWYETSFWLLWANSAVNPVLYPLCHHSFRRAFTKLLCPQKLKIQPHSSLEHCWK

With `COc1ccc(-c2ccc3cc(C(=O)O)ccc3c2)cc1C12CC3CC(CC(C3)C1)C2`, the AC50 (on Adenosine receptor A1; on Adenosine receptor A2a; in test [1]; in test [2]; on Vasopressin V1a receptor; at Vasopressin V2 receptor) was above 30 µM in each case. The AC50 (on B2 bradykinin receptor; in test [3]; at Cannabinoid receptor 1; in [4]; in test [5]; at Histamine H1 receptor) was above 30 µM each time. For the same compound, the AC50 (in test [6]; in test [7]; in test [8]; on Mu-type opioid receptor; in test [9]; on Histamine H3 receptor) was above 30 µM each time.
Consider `COc1ccccc1N1CCN(CCCNc2cc(=O)n(C)c(=O)n2C)CC1`, for which the AC50 (usually the midpoint of the concentration-response curve, whichever way the signal moves) on Adenosine receptor A1 is above 30 µM; on Adenosine receptor A2a it was above 30 µM; in test [1] it was 11 µM; on Vasopressin V1a receptor it was above 30 µM; on Vasopressin V2 receptor, above 30 µM; at B2 bradykinin receptor it was above 30 µM. The AC50 in test [3] is above 30 µM; at Cannabinoid receptor 1, above 30 µM; in [4], above 30 µM; in [5], above 30 µM; on Histamine H1 receptor, 4.3 µM; in [6], above 30 µM. In addition, the AC50 was 20 µM in test [7]; above 30 µM in test [8]; above 30 µM on Mu-type opioid receptor; above 30 µM in test [9]; above 30 µM at Histamine H3 receptor.
As for `CCOC(=O)[C@H](CCc1ccccc1)N[C@@H](C)C(=O)N1C(=O)N(C)C[C@H]1C(=O)O`, the AC50 (on Adenosine receptor A1; at Adenosine receptor A2a; in [1]; in test [2]; at Vasopressin V1a receptor; on Vasopressin V2 receptor) was above 30 µM each time. Moreover, the concentration at half-maximal activity (AC50) (at B2 bradykinin receptor; in [3]; at Cannabinoid receptor 1; in test [4]; in test [5]; on Histamine H1 receptor) was above 30 µM each time. Further, the AC50 (in [6]; in test [7]; on Mu-type opioid receptor; in test [9]; on Histamine H3 receptor) was above 30 µM throughout.
As for `CC(C)(C)C(=O)Oc1ccc(S(=O)(=O)Nc2ccccc2C(=O)NCC(=O)O)cc1`, the AC50 (on Adenosine receptor A1; on Adenosine receptor A2a; in [1]; in [2]; at Vasopressin V1a receptor; on Vasopressin V2 receptor) was above 30 µM in each case. In addition, the AC50 (on B2 bradykinin receptor; in test [3]; at Cannabinoid receptor 1; in test [4]; in test [5]; at Histamine H1 receptor) was above 30 µM throughout. For the same compound, the AC50 (in test [6]; in [7]; in [8]; on Mu-type opioid receptor; in [9]; at Histamine H3 receptor) was above 30 µM in each case.
As to `CC(=O)O[C@H]1CC[C@@]2(C)C(=CC[C@@H]3[C@@H]2CC[C@]2(C)C(c4cccnc4)=CC[C@@H]32)C1` [ABIRATERONE ACETATE], the AC50 (at Adenosine receptor A1; at Adenosine receptor A2a; in [1]; in [2]; at Vasopressin V1a receptor; in [3]) was above 30 µM each time. The AC50 (on Cannabinoid receptor 1; in test [4]; in test [5]; at Histamine H1 receptor; in test [7]; on Mu-type opioid receptor) was above 30 µM in each case. The AC50 (in [9]; on Histamine H3 receptor) was above 30 µM in each case.
Take `O=C(O)CCCCCCNC1c2ccccc2CCc2ccccc21` [AMINEPTINE]: the AC50 (at Adenosine receptor A1; on Adenosine receptor A2a; in test [1]; in test [2]; at Vasopressin V1a receptor; on Vasopressin V2 receptor) was above 30 µM throughout. For the same compound, the AC50 (on B2 bradykinin receptor; in test [3]; on Cannabinoid receptor 1; in [4]; in [5]; on Histamine H1 receptor) was above 30 µM each time. For the same compound, the AC50 (in [6]; in test [7]; in test [8]; on Mu-type opioid receptor; in [9]; at Histamine H3 receptor) was above 30 µM in each case.
As for `NCC(=O)CCC(=O)O` [AMINOLEVULINIC ACID], the AC50 (on Adenosine receptor A1; at Adenosine receptor A2a; in [1]; in test [2]; at Vasopressin V1a receptor; on Vasopressin V2 receptor) was above 30 µM each time. Moreover, the AC50 (at B2 bradykinin receptor; in test [3]; at Cannabinoid receptor 1; in test [4]; in [5]; on Histamine H1 receptor) was above 30 µM in each case. Also, the AC50 (in [6]; in test [8]; on Mu-type opioid receptor; at Histamine H3 receptor) was above 30 µM in each case.
Take `CN1C(=O)C(O)N=C(c2ccccc2Cl)c2cc(Cl)ccc21` (configuration not stated) [LORMETAZEPAM]: the AC50 (on Adenosine receptor A1; on Adenosine receptor A2a; in test [2]; on Vasopressin V1a receptor; at Vasopressin V2 receptor; on B2 bradykinin receptor) was above 30 µM throughout. Also, the AC50 was above 30 µM in test [3]; above 30 µM at Cannabinoid receptor 1; 0.0014 µM in test [4]; above 30 µM in [5]; above 30 µM on Histamine H1 receptor; above 30 µM in [6]. The AC50 in [7] was above 30 µM; in test [8], 8.1 µM; on Mu-type opioid receptor, above 30 µM; in [9] it was above 30 µM; at Histamine H3 receptor, above 30 µM.
As for `O=C(O)/C=C/c1ccc(Cn2ccnc2)cc1` [OZAGREL], the AC50 (on Adenosine receptor A1; at Adenosine receptor A2a; in test [1]; in test [2]; at Vasopressin V1a receptor; at Vasopressin V2 receptor) was above 30 µM throughout. The AC50 (at B2 bradykinin receptor; in test [3]; on Cannabinoid receptor 1; in test [4]; in [5]; at Histamine H1 receptor) was above 30 µM throughout. Moreover, the AC50 (in [6]; in test [7]; in test [8]; on Mu-type opioid receptor; on Histamine H3 receptor) was above 30 µM in each case.
